Target: human, KCNT1 (Homo sapiens (Human), UniProt Q5JUK3)
Assay: FLIPR Tl/K Flux Assay
Format: cell-based
Settings: HEK293 cells stably expressing human KCNT1; Tl+ flux stimulated with EC80 of agonist Loxapine
In short: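 Inhibition values come from a Hill-equation fit of % inhibition versus log concentration, using normalized fluorescence (Fmax/Fmin) over a 160 s read. The read followed stimulation with Tl+ plus EC80 agonist loxapine after 30 min compound pre-incubation at 25 °C. Cells were KCNT1-expressing HEK293, dye-loaded 1 h in pH 7.4 HEPES/HBSS with 5 mM probenecid.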

Chain of human, KCNT1 (Q5JUK3 whole entry): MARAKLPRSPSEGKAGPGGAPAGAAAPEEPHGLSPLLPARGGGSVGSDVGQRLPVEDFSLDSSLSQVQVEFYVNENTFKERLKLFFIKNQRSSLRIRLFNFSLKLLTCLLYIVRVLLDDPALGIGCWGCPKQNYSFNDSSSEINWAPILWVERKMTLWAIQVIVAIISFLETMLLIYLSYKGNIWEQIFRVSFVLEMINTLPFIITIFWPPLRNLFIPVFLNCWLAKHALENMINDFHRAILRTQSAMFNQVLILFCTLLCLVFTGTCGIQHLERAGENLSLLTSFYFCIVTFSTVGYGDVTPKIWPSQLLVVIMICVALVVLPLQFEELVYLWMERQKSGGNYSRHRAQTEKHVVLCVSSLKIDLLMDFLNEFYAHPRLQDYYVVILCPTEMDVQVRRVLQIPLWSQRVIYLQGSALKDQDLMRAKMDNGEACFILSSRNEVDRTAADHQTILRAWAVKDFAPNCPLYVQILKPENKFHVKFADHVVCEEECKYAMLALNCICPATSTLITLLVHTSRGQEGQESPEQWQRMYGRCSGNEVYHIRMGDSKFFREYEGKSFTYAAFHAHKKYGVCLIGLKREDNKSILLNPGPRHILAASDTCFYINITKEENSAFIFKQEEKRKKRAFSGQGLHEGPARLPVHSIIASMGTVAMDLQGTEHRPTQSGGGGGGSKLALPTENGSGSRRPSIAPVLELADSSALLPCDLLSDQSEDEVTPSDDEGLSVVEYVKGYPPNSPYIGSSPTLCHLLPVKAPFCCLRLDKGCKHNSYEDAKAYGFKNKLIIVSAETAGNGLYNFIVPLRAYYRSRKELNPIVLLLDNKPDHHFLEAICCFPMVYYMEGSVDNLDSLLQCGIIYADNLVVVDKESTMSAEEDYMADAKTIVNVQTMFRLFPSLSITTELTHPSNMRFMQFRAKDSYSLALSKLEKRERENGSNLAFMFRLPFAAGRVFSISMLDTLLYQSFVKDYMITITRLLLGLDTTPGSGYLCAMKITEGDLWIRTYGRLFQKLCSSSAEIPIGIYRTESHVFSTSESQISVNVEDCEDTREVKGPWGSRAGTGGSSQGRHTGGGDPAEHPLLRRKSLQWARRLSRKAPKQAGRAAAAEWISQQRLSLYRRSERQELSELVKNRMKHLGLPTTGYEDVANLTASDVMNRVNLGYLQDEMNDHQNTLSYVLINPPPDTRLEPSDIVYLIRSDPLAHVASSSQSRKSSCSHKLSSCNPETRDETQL

(S)—N-(2-(2-Cyclopropyl-5-fluoropyridin-4-yl)-5,6-dihydro-4H-pyrrolo[1,2-b]pyrazol-4-yl)-1-methyl-3-(trifluoromethyl)-1H-pyrazole-5-carboxamide [Compound I-154a]
IC50: < 250 nM

(rac)-N-(2-(2-Cyclopropylpyridin-4-yl)-4,5,6,7-tetrahydropyrazolo[1,5-a]pyridin-4-yl)-6-(trifluoromethyl)nicotinamide [Compound I-65]
IC50: < 250 nM
